The compounds below were run against T1, FAAH (Rattus norvegicus, UniProt P97612) (assay: FAAH inhibition, rat brain membrane homogenate assay). Conditions: rat brain homogenate; average activity; read-out: Rat Brain Extract FAAH IC50.
T1 construct: For the assay of FAAH activity in rat brain membrane (RBM) homogenates; tissue Charles River (animals); host or cells: rat whole brain, membrane fraction
T1 sequence (P97612 1-579): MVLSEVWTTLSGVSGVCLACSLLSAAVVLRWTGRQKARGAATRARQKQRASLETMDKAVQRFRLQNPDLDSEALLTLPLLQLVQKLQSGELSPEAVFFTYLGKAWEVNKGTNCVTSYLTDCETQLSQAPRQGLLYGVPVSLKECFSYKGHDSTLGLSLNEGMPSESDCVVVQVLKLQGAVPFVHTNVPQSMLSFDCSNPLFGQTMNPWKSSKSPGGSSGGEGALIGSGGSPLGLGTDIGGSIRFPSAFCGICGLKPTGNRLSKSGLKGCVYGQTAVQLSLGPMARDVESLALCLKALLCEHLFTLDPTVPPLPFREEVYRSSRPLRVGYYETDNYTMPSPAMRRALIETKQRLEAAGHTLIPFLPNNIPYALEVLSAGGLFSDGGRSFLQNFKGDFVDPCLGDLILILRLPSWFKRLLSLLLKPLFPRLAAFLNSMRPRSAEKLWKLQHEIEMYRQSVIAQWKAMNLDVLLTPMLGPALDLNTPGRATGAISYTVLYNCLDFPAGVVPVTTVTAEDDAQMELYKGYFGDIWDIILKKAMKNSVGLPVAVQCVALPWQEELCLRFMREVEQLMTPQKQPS
Format: biochemical
Outline: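 Membranes from female CD rat brain (Tris pH 7.4/EDTA/MgCl2 resuspension), 7 μg protein, incubated 10 min at 37 °C with [3H]anandamide plus […] unlabelled AEA, 1 mg/mL fatty acid-free BSA, Tris-HCl pH 6.5, 1 mM EDTA, 1% DMSO. [3H]ethanolamine separated by chloroform/methanol extraction or charcoal filtration, scintillation-counted; IC50 derived.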
With `COc1cc(NC(=O)C(=O)c2c(C)n(Cc3ccc(Cl)cc3)c3cccnc23)ccn1` [Compound 3, 2-(1-(4-chlorobenzyl)-2-methyl-1H-pyrrolo[3,2-b]pyridin-3-yl)-N-(2-methoxypyridin-4-yl)-2-oxoacetamide] the IC50 was less than 100 nM. `COc1cc(NC(=O)C(=O)c2c(C)n(Cc3ccc(Cl)cc3)c3ccc(C(=O)O)cc23)ccn1` [Compound 4, 1-(4-chlorobenzyl)-3-(2-(2-methoxypyridin-4-ylamino)-2-oxoacetyl)-2-methyl-1H-indole-5-carboxylic acid] was tested, and the IC50 was 1000 to 10000 nM. `COc1ccc2c(c1)c(C(=O)C(=O)Nc1ccnc(OC)c1)c(C)n2Cc1cccnc1` [Compound 78, 2-(5-methoxy-2-methyl-1-(pyridin-3-ylmethyl)-1H-indol-3-yl)-N-(2-methoxypyridin-4-yl)-2-oxoacetamide] showed an IC50 of 100 to 1000 nM. Compound `COc1ccc2c(c1)c(C(=O)C(=O)Nc1ccnc(OC)c1)c(C)n2Cc1ccc(Cl)cn1` [Compound 79, 2-(1-((5-chloropyridin-2-yl)methyl)-5-methoxy-2-methyl-1H-indol-3-yl)-N-(2-methoxypyridin-4-yl)-2-oxoacetamide] has an IC50 of less than 100 nM. `COc1cc(NC(=O)C(=O)c2c(C)n(Cc3ccc(Cl)cc3)c3cc(OC)c(Cl)cc23)ccn1` [Compound 80, 2-(5-chloro-1-(4-chlorobenzyl)-6-methoxy-2-methyl-1H-indol-3-yl)-N-(2-methoxypyridin-4-yl)-2-oxoacetamide] showed an IC50 of less than 100 nM. `COc1ccc2c(c1)c(C(=O)C(=O)Nc1ccnc(OC)c1)c(C)n2Cc1ncc(F)cc1F` [Compound 81, 2-(1-((3,5-difluoropyridin-2-yl)methyl)-5-methoxy-2-methyl-1H-indol-3-yl)-N-(2-methoxypyridin-4-yl)-2-oxoacetamide] was tested, and the IC50 was less than 100 nM. With `COc1ccc2c(c1)c(C(=O)C(=O)Nc1ccnc(OC)c1)c(C)n2Cc1ncc(Cl)cc1Cl` [Compound 82, 2-(1-((3,5-dichloropyridin-2-yl)methyl)-5-methoxy-2-methyl-1H-indol-3-yl)-N-(2-methoxypyridin-4-yl)-2-oxoacetamide] the IC50 was less than 100 nM. Compound `COc1ccc2c(c1)c(C(=O)C(=O)Nc1ccnc(OC)c1)c(C)n2Cc1ncccn1` [Compound 83, 2-(5-methoxy-2-methyl-1-(pyrimidin-2-ylmethyl)-1H-indol-3-yl)-N-(2-methoxypyridin-4-yl)-2-oxoacetamide] has an IC50 of 1000 to 10000 nM. In the case of `COc1ccc2c(c1)c(C(=O)C(=O)Nc1ccnc(OC)c1)c(C)n2Cc1ccc(C)cn1` [Compound 84, 2-(5-methoxy-2-methyl-1-((5-methylpyridin-2-yl)methyl)-1H-indol-3-yl)-N-(2-methoxypyridin-4-yl)-2-oxoacetamide], the IC50 is reported as less than 100 nM. `COc1cc(NC(=O)C(=O)c2c(C)n(Cc3ccc(F)cn3)c3ccc(C)cc23)ccn1` [Compound 85, 2-(1-((5-fluoropyridin-2-yl)methyl)-2,5-dimethyl-1H-indol-3-yl)-N-(2-methoxypyridin-4-yl)-2-oxoacetamide] gave an IC50 of less than 100 nM. For `COc1ccc2c(c1)c(C(=O)C(=O)Nc1ccnc(OC)c1)c(C)n2Cc1ccc(Cl)nn1` [Compound 86, 2-(1-((6-chloropyridazin-3-yl)methyl)-5-methoxy-2-methyl-1H-indol-3-yl)-N-(2-methoxypyridin-4-yl)-2-oxoacetamide], the IC50 was less than 100 nM. With `COc1ccc2c(c1)c(C(=O)C(=O)Nc1ccnc(OC)c1)c(C)n2Cc1ncc(Cl)cc1F` [Compound 87, 2-(1-((5-chloro-3-fluoropyridin-2-yl)methyl)-5-methoxy-2-methyl-1H-indol-3-yl)-N-(2-methoxypyridin-4-yl)-2-oxoacetamide] the IC50 was less than 100 nM. Work on `COc1cc(NC(=O)C(=O)c2c(C)n(Cc3ccc(Cl)cc3)c3cc(F)c(C)cc23)ccn1` [Compound 89, 2-(1-(4-chlorobenzyl)-6-fluoro-2,5-dimethyl-1H-indol-3-yl)-N-(2-methoxypyridin-4-yl)-2-oxoacetamide] yielded an IC50 of less than 100 nM. For `COc1cc(NC(=O)C(=O)c2c(C)n(Cc3ccc(Cl)cn3)c3cc(F)c(C)cc23)ccn1` [Compound 90, 2-(1-((5-chloropyridin-2-yl)methyl)-6-fluoro-2,5-dimethyl-1H-indol-3-yl)-N-(2-methoxypyridin-4-yl)-2-oxoacetamide], the IC50 was less than 100 nM. For `COc1cc(NC(=O)C(=O)c2c(C)n(Cc3ccc(Cl)cc3F)c3cc(F)c(OC)cc23)ccn1` [Compound 91, 2-(1-(4-chloro-2-fluorobenzyl)-6-fluoro-5-methoxy-2-methyl-1H-indol-3-yl)-N-(2-methoxypyridin-4-yl)-2-oxoacetamide], the IC50 was less than 100 nM. For `COc1cc(NC(=O)C(=O)c2c(C)n(Cc3ccc(Cl)cc3Cl)c3cc(F)c(OC)cc23)ccn1` [Compound 92, 2-(1-(2,4-dichlorobenzyl)-6-fluoro-5-methoxy-2-methyl-1H-indol-3-yl)-N-(2-methoxypyridin-4-yl)-2-oxoacetamide], the IC50 was less than 100 nM. `COc1cc(NC(=O)C(=O)c2c(C)n(Cc3ccc(Cl)cc3)c3cc(Cl)c(C)cc23)ccn1` [Compound 93, 2-(6-chloro-1-(4-chlorobenzyl)-2,5-dimethyl-1H-indol-3-yl)-N-(2-methoxypyridin-4-yl)-2-oxoacetamide] was tested, and the IC50 was less than 100 nM. `COc1cc(NC(=O)C(=O)c2c(C)n(Cc3ccc(Cl)cn3)c3cc(Cl)c(C)cc23)ccn1` [Compound 94, 2-(6-chloro-1-((5-chloropyridin-2-yl)methyl)-2,5-dimethyl-1H-indol-3-yl)-N-(2-methoxypyridin-4-yl)-2-oxoacetamide] gave an IC50 of less than 100 nM.

Reference: patent US20150175599A1, “FAAH Inhibitors” (Ironwood Pharmaceuticals, Inc., priority 2010, published 2015)
